{"source": "patent US20200239587A1", "about": "“SENSITIZATION OF TUMORS TO THERAPIES THROUGH ENDOGLIN ANTAGONISM” (Cedars-Sinai Medical Center, priority 2016, published 2020)", "key": {"MIAPACA-2": {"test_system": "MIAPACA-2", "test": "Clonogenic survival assay with radiation", "assay_type": "cell-based, human", "conditions": "p53 mutant pancreatic cancer cell line", "procedure": "Assays were performed on cell lines with p53 null prostate cancer cell line, FIG. 23A) PC3 and two p53 mutant pancreatic cancer cell lines, FIG. 23B) MIAPACA-2 and FIG. 23C) HPAF-II with indicated doses of radiation. Breast cancer cell lines with intact p53, FIG. 23D) MCF7 and mutant yet functional p53, FIG. 23E) MDA-MB23 were however radio-sensitized by the 1 μg/ml TRC105."}, "22Rv1 cells [1]": {"test_system": "22Rv1 cells", "test": "COMET assay", "assay_type": "cell-based, human", "conditions": "irradiated", "procedure": "22Rv1 were pre-treated with 1 μg/ml TRC105 24 hours prior to irradiation with 4 Gy. FIG. 22A) γ-H2AX or p53 bp were imunolocalized at 4, 24, and 48 hours post radiation. Foci per nuclei were quantified (n=100). FIG. 22B) Comet assay was performed 30 minutes and 24 hours following irradiation. The tail moment was quantified (n=50). FIG. 22C) Cell cycle analysis was performed on 22Rv1 at 0, 4, 8, and 24 hours post radiation in the presence of IgG or TRC105 (n=3) in 3 independent experiments. (***p<0.001, ****p<0.0001)."}, "[2]": {"test_system": "ID1 mRNA expression by Rv1 cells and mouse wild-type fibroblasts", "test": "Species specificity of CD105 antagonists, BMP-induced ID1 mRNA", "assay_type": "cell-based, human", "conditions": "1 μg/ml; BMP 50 ng/mL, 6 hours", "procedure": "All cells were pre-treated overnight in serum free media, then incubated with BMP (50 ng/mL) in the presence or absence of differing concentrations of concentrations of TRC105 or M1043 for 6 hours (mean+/−SD). Within each group, the left column depicts human PCa and right column depicts mouse fibroblasts.\n(§1) Total RNA was extracted using the RNeasy kit (Qiagen). 1 μg RNA was used for cDNA synthesis using iSCRIPT cDNA synthesis kit (1708891, Bio-Rad). Quantitative RT-PCR was performed with 5 replicates using the Step One Real-Time PCR system (Applied Biosystems). Gene mRNA expression was normalized to GAPDH. Primer sequences can be found in the Table 1. For RNA-sequencing, Ion Proton AmpliSeq Transcriptome RNA Sequencing was performed achieving an average of 3M reads. We mapped an average of 88% of the reads to the human genome with Torrent Suite version 4.4.2."}, "PGC1α in 22Rv1 cells": {"test_system": "PGC1α in 22Rv1 cells", "test": "PGC1α expression and sub-cellular localization", "assay_type": "cell-based, human", "conditions": "4Gy", "procedure": "FIGS. 24A-24D depict that PGC1α and mitochondrial biogenesis are regulated by BMP/CD105. 22Rv1 cells were incubated with IgG or TRC105 with or without 4 Gy irradiation. All measurements were made 72 hours post radiation. FIG. 24A) Western blot for whole cell lysate, nuclear and cytoplasmic fractions were independently analyzed for PGC1α expression. Loading controls included β-actin (whole cell), lamin B (nuclear marker), and Rho A (cytoplasm marker). FIG. 24B) Immunofluorescent localization of PGC1α was visualized with DAPI nuclear counterstain. FIG. 24C) mRNA expression of PGC1α target genes, NRF1, MTFA, and CPT1C was measured. mRNA expression was normalized to GAPDH and untreated IgG 0 Gy. FIG. 24D) Mitochondrial DNA (mtDNA) was measured from total DNA extracts and normalized to nuclear DNA and compared to untreated IgG 0 Gy. Data are reported as means+/−S.D. of 3 independent experiments. (***p<0.001, ****p<0.0001)."}, "[3]": {"test_system": "SFRP1 expression in human NAF and CAF", "test": "SFRP1 mRNA expression in NAF and CAF treated with TRC105", "assay_type": "cell-based", "conditions": "vs IgG", "excerpt": "See also FIG. 15. […] Immunohistochemical localization of CD105 and SFRP1 in benign or PCa tissues are found in blood vessels (v), epithelia (e), and stroma (s), n=4. Scale bar represents 100 μm. FIG. 12E) Epithelial proliferation of human CW22Rv1, in 3D co-cultures with mouse prostatic fibroblasts, were co-stained for EpCam and Ki67 for FACS analysis. […] See also FIG. 16. […] Error bars are mean+/−SD and **p<0.01, ****p<0.0001, compared to control unless otherwise indicated.\nCW22Rv1, C42B, and PC3 cells from ATCC were expanded as directed. Prostatectomy specimens from Cedars-Sinai Medical Center or the Greater Los Angeles Veterans Affairs were cultured to generate NAF and CAF cells using the same method, as C57BL/6 mouse wild-type prostatic fibroblasts were grown as previously reported (Franco et al., 2011, Cancer research 71, 1272-1281; Kiskowski et al., 2011, Cancer research 68, 4709-4718). TRC105 and M1043 were provided by TRACON Pharmaceuticals, Inc. (San Diego, Calif.). […]\nas §1, with “1 μg RNA was used for cDNA synthesis using iSCRIPT cDNA synthesis kit (1708891, Bio-Rad).” left out, “Gene mRNA expression was normalized to GAPDH. Primer sequences can be found in the Table 1.” left out"}, "PC3 cells": {"test_system": "PC3 cells", "test": "Cell death assay with docetaxel and TRC105", "assay_type": "cell-based, human", "conditions": "different concentrations of docetaxel and TRC105", "procedure": "The PC3 cells used in the cell death assay were treated with different concentrations of docetaxel in the presence of different concentrations of TRC105."}, "22Rv1 cells [4]": {"test_system": "22Rv1 cells", "test": "Annexin-V apoptosis by FACS after irradiation", "assay_type": "cell-based, human", "conditions": "TRC105 with 4 Gy radiation vs radiation alone, 5 days", "procedure": "FIG. 18A) Cell surface CD105 expression was measured in PC3, C42b, and 22Rv1 72 hours after 4 Gy irradiation treatment by FACS analysis and compared to cells not irradiated (control). FIG. 18B) Cell surface CD105 expression was measured in cell lines following a dose range of irradiation (0, 2, 4, or 6 Gy). FIG. 18C) The durability of cell surface CD105 expression in 22Rv1 was determined 0, 0.5, 4, 8, 24, 48, 72, 120, and 168 hours following 4 Gy irradiation. CD105 cell surface expression fold change was normalized to levels expressed prior to irradiation. FIG. 18D) Western blot for phosphorylated-Smad1/5 was measured in CW22Rv1 cells in the presence or absence of serum starvation and treatment with 50 ng/ml BMP4 or 1 μg/ml TRC105. β-actin expression served as the loading control. FIG. 18E) Annexin-V expression was measured in 22Rv1 cells by FACS analysis 5 days following 4 Gy irradiation in the presence and absence of TRC105. FIG. 18F) Clonogenic assay was measured 10 days following irradiation of CW22Rv1 and C42b cells in a dose range of 0 to 6 Gy in the presence of 1 μg/ml IgG or TRC105. Data are reported as a mean+/−S.D. (**p<0.01, ***p<0.001)."}}, "data": [{"substance": "TRC105: partially humanized monoclonal antibody that blocks BMP signaling; human-specific CD105 (endoglin) neutralizing antibody from Tracon Pharmaceuticals", "values": [{"measurement": "radiation sensitivity, clonogenic response", "setting": "MIAPACA-2", "value": "neither the HPAF-II nor MIAPACA-2 cell lines treated with radiation showed a change in clonogenic response"}, {"measurement": "tail moment", "setting": "22Rv1 cells [1]; 30 minutes post radiation, p<0.001", "value": "significant increase in tail moment"}, {"measurement": "tail moment", "setting": "22Rv1 cells [1]; after 24 hours", "value": "no significant difference"}, {"measurement": "cross-species reactivity", "setting": "[2]", "value": "no cross-species reactivity"}, {"measurement": "radiation-induced nuclear translocation of PGC1α", "setting": "PGC1α in 22Rv1 cells; 72 hours", "value": "prevented radiation-induced nuclear translocation of PGC1α"}, {"measurement": "PGC1α expression, whole cell lysate", "setting": "PGC1α in 22Rv1 cells; IgG or TRC105, 72 hours", "value": "no effect on PGC1α expression"}, {"measurement": "SFRP1 expression in NAF", "setting": "[3]", "value": "no effect"}, {"measurement": "SFRP1 expression in CAF", "setting": "[3]; p<0.0001", "value": "significantly down regulated"}, {"measurement": "sensitization to docetaxel, cell death", "setting": "PC3 cells", "value": "taxane sensitizer"}, {"measurement": "apoptosis measured by Annexin-V", "setting": "22Rv1 cells [4]", "value": "significantly increased apoptosis"}]}]}
